Measurements reported in patent US9232797B2, “Pesticidal composition and its use” (SUMITOMO CHEMICAL COMPANY, LIMITED, priority 2010, dated 2016).

Test system: Rhizoctonia solani
Experiment: Soybean seed treatment test in soil contaminated by Rhizoctonia solani (disease control efficacy)
Format: in vivo, Rhizoctonia solani on soybean (variety: Natto shoryu)
Conditions: seed treatment with carboxamide compound alone 0.2 g/100 kg of seeds; soybean cultivated 20 days in contaminated soil; versus non-treated plot
Procedure: A cyclohexanone solution (100 microL) containing prescribed amount (weight) of a test compound was applied on seeds of soybean (variety: Natto shoryu) (10 g) by using a rotary apparatus for seed treatment (Seed dresser, manufactured by Hans-Ulrich Hege GmbH).
One day after the treatment, plastic pot was filled with soil contaminated by Rhizoctonia solani, and the seeds treated with the test compounds were seeded in the soil and cultivated in a glass-greenhouse for 20 days (hereinafter referred to as “treated plot”).
Thereafter, the presence of disease caused by Rhizoctonia solani in the young plants which germinated from each seed was observed and disease severity was calculated according to the following calculation formula (1).
On the other hand, seeds of soybean which were not treated as above were cultivated in the same way as above (hereinafter referred to as “non-treated plot”) and the disease severity in “non-treated plot” was calculated in the same way as above “treated plot”. On the basis of the above disease severity in “treated plot” and “non-treated plot”, efficacy in “treated plot” was evaluated according to the following calculation formula (2). […]

With `CC1CC(C)(C)c2cccc(NC(=O)c3cn(C)nc3C(F)F)c21` (stereo not shown) [carboxamide compound (I)] the “efficacy (%)” value was 42.1%.
